Consider two compounds from ChEMBL document CHEMBL1130498, “Synthesis of conformationally constrained analogues of BRL-32872. Determination of stereochemistry and related pharmacological properties” (Bioorg Med Chem Lett, 1997).

One may read the Hill coefficient as a measure of the steepness of the concentration-response curve.

A short description of the assay: Hill coefficient was evaluated.

Where “and” joins values, the source holds several entries; their conditions need not be identical. Identical values can stand only once.

Consider `COc1ccc(CCN2C3CC[C@@H]2[C@H](N(C(=O)c2ccc([N+](=O)[O-])cc2)c2ccc(OC)c(OC)c2)C3)cc1OC`, for which the Hill coefficient is 1.37 and 0.93.

For the compound `COc1ccc(CCN2C3CC[C@@H]2[C@@H](N(C(=O)c2ccc([N+](=O)[O-])cc2)c2ccc(OC)c(OC)c2)C3)cc1OC`, the Hill coefficient was 1.01 and 1.18.
